These results are taken from patent US5124334A, “Benzylalcohol phospholipase A2 inhibitors” (Du Pont Merck Pharmaceutical Company, priority 1989, dated 1992).

Where a name gives a salt, the structure may show the parent alone.

This assay relates to inflammation induced by tetradecanoyl phorbol acetate (TPA). The assay is described as follows: TPA inflammation inhibition test (TPA-induced mouse ear edema). The class given is in vivo, mice. The conditions noted are these: test compound 100 mg/ear applied topically, edema measured four hours later. The source says: One such model is the inflammation induced by tetradecanoyl phorbol acetate (TPA), modified from the method of Kuehl et al., Nature, 1977, 265, 170; and Van Arman, Clin. Pharmacol. Ther., 1974, 16, 900. The TPA model mimics many of the inflammatory change which occur in human skin diseases such as psoriasis, since elevated levels of inflammatory arachidonic acid metabolites are found and an influx of polymorphonuclear leukocytes is observed. The test procedure used to evaluate the compounds of Formula (I) is as follows: the test compound (100 mg/ear) is applied to both ears of mice in an appropriate vehicle, such as acetone, and then the inflammatory stimulus (TPA) is applied to the right ear. Four hours later, the edema is measured by removing standard size discs from the ears using a biopsy punch. A control group of animals receives TPA in vehicle applied to the right ear, and vehicle alone to the left ear. The weights of the ear discs are determined, and the suppression of swelling observed in animals treated with the test compound is determined.
Take `CC(C)c1ccc2c(c1)CCC1C(C)(CNCCC(O)c3ccc(F)cc3)CCCC21C` (stereo not drawn) [Example 1, α-(2-[1,4a-Dimethyl-7-(2-propyl)-1,2,3,4,4a,9,10,10a-octahydro-1-phenanthren-1-yl]methylamino)ethyl)-4-fluorobenzenemethanol Hydrochloride]: the “% Inhibition of Control Swelling” value is given as 46%. Turning to `COc1ccc(C(O)CCNCC2(C)CCCC3(C)c4ccc(C(C)C)cc4CCC23)cc1.Cl` (stereo not drawn) [Example 12, α-(2-([1,4a-Dimethyl-1,2,3,4,4a,9,10,10a-octahydro-7-(2-propyl)-1-phenanthrenyl]methylamino)-ethyl)-4-methoxybenzenemethanol Hydrochloride], the “% Inhibition of Control Swelling” value is 27%. Take `CC(C)c1ccc2c(c1)CCC1C(C)(CNCCCC(O)c3ccc(F)cc3)CCCC21C.Cl` (stereo not drawn) [Example 2, α-(3-([1,4a-Dimethyl-1,2,3,4,4a,9,10,10a-octahydro-7-(2-propyl)-1-phenanthrenyl]methylamino)propyl)-4-fluorobenzenemethanol Hydrochloride]: the “% Inhibition of Control Swelling” value worked out at 57%.
